Where a SMILES comes first, the peptide text is derived from it.
Tests used:
[1] = Odor development on storage in sealed containers; assay type: physicochemical; settings: recrystallized sample, sealed container, twenty-nine days at 45°C.
Method: Samples of virtually odorless, recrystallized D,L-methionine, glycyl-D,L-methionine, and D,L-alanyl-D,L-methionine were stored in sealed containers for twenty-nine days at 45°C.

[2] = Chick feeding test, body weight and feed efficiency on fortified corn-soy rations; assay type: in vivo, cockerels (Barred Rock males x Rhode Island females); settings: for difference between responses from methionine and glycylmethionine supplemented rations: 0.15% D,L-methionine vs 0.2% glycyl-D,L-methionine; for feed efficiencies / growth: corn-soy poultry ration with 0.15% D,L-methionine or 0.2% glycyl-D,L-methionine
Source text: For this test, cockerels are produced from a cross of Barred Rock males and Rhode Island females. All the 150 cockerels are selected on the basis that their weight differs no more than 2 grams. The birds are maintained on an all vegetable protein corn-soy basal diet for a 2-week preliminary period. At the end of this period, a median group of 90 birds is selected on the basis of weight, and they are then evenly distributed into three experimental groups, which in turn are placed on the experimental rations (Table 2). The level of glycyl-D,L-methionine in Diet No. 3 is equivalent to the level of D,L-methionine in Diet No. 2, on the basis of L-methioninecontent. The birds are weighed weekly and their feed consumption also determined weekly, to permit weekly feed efficiency evaluations. […] | -- -- 92 g.

[3] = test system: Leuconostoc mesenteroides P-60; experiment: L-methionine bioavailability from dipeptides by turbidimetric growth response of a methionine-requiring bacterial mutant; assay type: cell-based; settings: for utilization as a source of L-methionine by L. mesenteroides P-60: 17 hours of incubation at 37°C.; for L-Methionine Response / L-Methionine, % of Theoretical: 17 hours, 37°C.
Source text: The utilization of methionine-containing peptide can be shown, for example, in animal feeding tests. However, the formation of free methionine can also be shown directly in tests with a microorganism requiring methionine for its growth and reproduction. The following Example describes a quantitative test involving a known bacterial mutant.
Leuconostoc mesenteroides P-60 was the bacterial mutant used to assess the biological availability of L-methionine in glycyl-D,L-methionine, glycyl-L-methionine and L-methionylglycine. This mutant is unable to synthesize methionine and therefore requires an external source of this amino acid.
Under aseptic conditions, a substrate devoid of L-methionine was supplemented with graded amounts of glycyl-D,L-methionine, glycyl-L-methionine, and L-methionylglycine and then inoculated with a drop of a washed L. mesenteroides P-60 culture. After 17 hours of incubation at 37°C., the growth of L. mesenteroides P-60 in each of the culture tubes was measured turbidimetrically, at a wavelength of […]. Based on the growth response of this mutant to a similar treatment with a standard L-methionine solution of known concentration, the L-methionine response, if any, to the candidate peptides was evaluated.

[4] = level tested 12 μg./tube, calculated L-methionine equivalence 4.0 μg. (glycyl-D,L-methionine) or 8.0 μg. (L-dipeptides)
[5] = level tested 24 μg./tube, calculated L-methionine equivalence 8.0 μg.
[6] = level tested 6 μg./tube, calculated L-methionine equivalence 4.0 μg.

Row | SMILES | odor after storage [1] | difference between responses from methionine and glycylmethionine supplemented rations [2] | feed efficiencies [2] | growth [2] | utilization as a source of L-methionine by L. mesenteroides P-60 [3] | L-Methionine Response [3, 4] [µg] | L-Methionine, % of Theoretical [3, 4] [%] | L-Methionine Response [3, 5] [µg] | L-Methionine, % of Theoretical [3, 5] [%] | L-Methionine Response [3, 6] [µg] | L-Methionine, % of Theoretical [3, 6] [%]
1 | CSCCC(NC(=O)C(C)N)C(=O)O (mixture of isomers) [D,L-alanyl-D,L-methionine] | developed a typical sulfurous odor | – | – | – | – | – | – | – | – | – | –
2 | CSCCC(N)C(=O)O (racemic) [D,L-Methionine, D,L-methionine, reference compound] | developed a typical sulfurous odor | No significant difference | improved feed efficiencies | significant growth increases | – | – | – | – | – | – | –
3 | CSCCC(NC(=O)CN)C(=O)O (racemic) [Glycyl-D,L-Methionine, glycyl-D,L-methionine] | still virtually odor-free | No significant difference | improved feed efficiencies | significant growth increases | can utilize | 3.5 | 88 | 7.5 | 94 | – | –
4 | CSCC[C@H](NC(=O)CN)C(=O)O [Glycyl-L-Methionine, glycyl-L-methionine] | – | – | – | – | can utilize | 7.8 | 97 | – | – | 4.5 | 112
5 | CSCC[C@H](N)C(=O)NCC(=O)O [L-Methionylglycine, L-methionylglycine] (H-Met-Gly-OH) | – | – | – | – | can utilize | 7.5 | 94 | – | – | 4.0 | 100
